Test results published in article PMC3161630, “Targeted Chemotherapy Using a Cytotoxic Somatostatin Conjugate to Inhibit Tumor Growth and Metastasis in Nude Mice” (Clinical Medicine. Oncology, 2008).

How the values were obtained:
[1] = system: pancreatic carcinoid BON cells; experiment: Cell proliferation assay (MTT), BON; type: cell-based, human; settings: table: mean ± SEM (n)
Method: (§1) The CHO-R1 and CHO-R2 cell lines, which were transfected with rat SSTR1 and SSTR2, respectively, were a kind gift from Dr. Agnes Schonbrunn (University of Texas—Houston, Houston, TX). Cells were cultured in F-12 medium containing 10% fetal calf serum. All other human tumor cell lines, including neuroblastoma IMR32, leukemia MOLT-4, pancreatic cancer CFPAC-1, prostate cancer PC-3 were purchased from ATCC (American Type Culture Collection, Manassas, VA). Human pancreatic carcinoid BON cells were a kind gift from Dr. Courtney Townsend (University of Texas—Galveston) and cultured as described previously.
(§2) The kits for the cell proliferation assay (MTT Assay) were purchased from Promega (Madison, WI) and the protocol was the same as described previously.

[2] = system: prostate cancer PC-3 cells; experiment: Cell proliferation assay (MTT), PC-3; type: cell-based, human; settings: table: mean ± SEM (n)
Method: as §1, §2

[3] = system: pancreatic cancer CFPAC-1 cells; experiment: Cell proliferation assay (MTT), CFPAC-1; type: cell-based, human; settings: table: mean ± SEM (n)
Method: as §1, §2

[4] = system: neuroblastoma IMR32 cells; experiment: Cell proliferation assay (MTT), IMR32; type: cell-based, human; settings: table: mean ± SEM (n)
Method: as §1, §2

leukemia MOLT-4 cells = experiment: Cell proliferation assay (MTT), MOLT-4; type: cell-based, human; settings: table: mean ± SEM (n)
Method: as §1, §2

[5] = system: pancreatic carcinoid BON tumors; experiment: Tumor growth, continuous drug-releasing pellets, BON tumors; type: in vivo, nude mice; settings: 5 mg/pellet
Method: The cytotoxic CPT-SST conjugate JF-10-81 was synthesized as described previously. Continuous drug-releasing pellets containing JF-10-81 (5 mg/pellet) formulated to release drug for 60 days, were made by Innovative Research of America (Sarasota, FL).
Male nude mice, 5–7 weeks of age upon arrival, were purchased from the National Cancer Institute (NCI, Frederik, MD). The animal study was approved by the Tulane University Health Sciences Center Institutional Animal Care and Use Committee (IACUC).
The tumor tissue segments, grown from CFPAC-1, IMR32, MOLT-4 and BON cells injected into nude mice, were s.c. implanted into the flanks of nude mice as described previously. All the tumors were passaged from mouse to mouse. Tumor-carrying mice then were implanted with continuous drug-releasing pellets containing 5 mg of JF-10-81.
For treatments of pancreatic cancer CFPAC-1 tumors, mice were separated into 2 groups. Each mouse in the control group was implanted with a placebo pellet. Each mouse in the test group was implanted with a pellet containing JF-10-81 (5 mg/pellet) with a drug-release time of 60 days. Tumor volumes were measured and bodyweights were taken once a week. The treatment for all other tumors (BON, IMR32 and MOLT-4) was the same as above.

[6] = system: non-transfected CHO cells; experiment: Ligand-receptor binding assay, non-transfected CHO cells
Method: The assay was performed as a modification of the one previously described. The binding buffer contained Dulbecco’s Modified Eagle’s Medium (DMEM), 50 mM HEPES, 2 mM glutamine, 11.5 mM glucose, 1% bovine serum albumin (BSA) and 5 mM sodium pyruvate. The binding reactions took place in 1.5 ml eppendorf tubes containing 70–100 pM of [^125I]Tyr^11-SST-14 from PerkinElmer (Boston, MA 02118–2512), 1–1.5 × 10^5 cells and the tested SST analogs (10^−5 to 10^−13 M) for a total volume of 300 μl. These were incubated at room temperature for 50–60 minutes and centrifuged for 1–2 min at 9,000 g. The cell pellets were washed twice with phosphate-buffered saline (PBS) and counted for total radioactivity in a Titertek gamma counter (Huntsville, AL). The analyses were done using GraphPad Prism 4.0 (San Diego, […]). For further internalization, cells were then re-suspended and incubated in HBSS (pH4, acetic acid) on ice for 10 min, washed with cold PBS and then re-counted for radioactivity. Due to the radioactivity of membrane-bound receptors being released by the acid wash, the remaining radioactivity represents the internalized peptide.

CC[C@@]1(O)C(=O)OCc2c1cc1n(c2=O)Cc2cc3ccccc3nc2-1 [CPT, camptothecin]
EC50 ([1]; Homo sapiens): 171 nM | EC50 [1]: 171 ± 14.6 nM | EC50 ([2]; Homo sapiens, PC-3, MTT assay): 20.8 nM | EC50 ([2]; MTT assay): 20.8 ± 2.82 nM | EC50 ([3]; Homo sapiens, CFPAC-1, MTT assay): 25.5 nM | EC50 ([3]; MTT assay): 25.5 ± 5.6 nM | EC50 ([4]; Homo sapiens, IMR-32, MTT assay): 2.8 nM | EC50 ([4]; MTT assay): 2.82 ± 0.14 nM | EC50 (leukemia MOLT-4 cells; Homo sapiens, MOLT-4, MTT assay): 2 nM | EC50 (leukemia MOLT-4 cells; MTT assay): 1.96 ± 0.32 nM | Inhibition (%) ([5]; 42 days, vs placebo): 42% | percentage increase of tumor volumes ([5]; vs initial): 278%

C[C@H](N)C(=O)NCC(=O)N[C@H]1CSSC[C@@H](C(=O)O)NC(=O)[C@H](CO)NC(=O)[C@H]([C@@H](C)O)NC(=O)[C@H](Cc2ccccc2)NC(=O)[C@H]([C@@H](C)O)NC(=O)[C@H](CCCCN)NC(=O)[C@H](Cc2c[nH]c3ccccc23)NC(=O)[C@H](Cc2ccccc2)NC(=O)[C@H](Cc2ccccc2)NC(=O)[C@H](CC(N)=O)NC(=O)[C@H](CCCCN)NC1=O [SST-14]
affinity to the non-transfected CHO cells [6]: no affinity
